From patent US20220111055A1, “MODIFIED HYDROPHOBIC EXCIPIENT AND PREPARATION METHOD THEREOF” (ZHEJIANG ZHIDA PHARMACEUTICAL CO., LTD., priority 2019, published 2022)

Test: Solubility of paclitaxel in olive oil, castor oil and hydrophobic excipients (crystal formation in dried sample)
Format: physicochemical
Settings: for solubility of paclitaxel (crystal formation in the dried sample): 0.5 ml paclitaxel chloroform solution (10 mg/ml), volatilized overnight
Method: The specific experimental method was as follows. […] The chloroform solution was mixed with 0.5 ml of chloroform, from which 0.5 ml of diluent was taken and two-fold serial dilution was performed by using chloroform. Then 0.5 ml of a chloroform solution of paclitaxel (10 mg/ml) was added to the above-mentioned sample after the two-fold serial dilution, and then left in a hood to be naturally volatilized overnight. Crystal formation in the dried sample was observed and recorded.

CCCCCCCC/C=C\CCCCCCCCNC(=O)CC[C@@H](C)[C@H]1CC[C@H]2[C@@H]3[C@H](OC(=O)CNC(=O)[C@H](CCCCNC(=O)OC(C)(C)C)NC(=O)OCC4c5ccccc5-c5ccccc54)C[C@@H]4C[C@H](OC(=O)CNC(=O)[C@H](CCCCNC(=O)OC(C)(C)C)NC(=O)OCC5c6ccccc6-c6ccccc65)CC[C@]4(C)[C@H]3C[C@H](OC(=O)CNC(=O)[C@H](CCCCNC(=O)OC(C)(C)C)NC(=O)OCC3c4ccccc4-c4ccccc43)[C@]12C [Example 4]
solubility of paclitaxel (crystal formation in the dried sample) (0.98 mg hydrophobic excipient): + | solubility of paclitaxel (crystal formation in the dried sample) (1.95 mg hydrophobic excipient): + | solubility of paclitaxel (crystal formation in the dried sample) (3.90 mg hydrophobic excipient): + | solubility of paclitaxel (crystal formation in the dried sample) (7.81 mg hydrophobic excipient): +/− | solubility of paclitaxel (crystal formation in the dried sample) (15.65 mg hydrophobic excipient): − | solubility of paclitaxel (crystal formation in the dried sample) (31.30 mg hydrophobic excipient): − | solubility of paclitaxel (crystal formation in the dried sample) (62.50 mg hydrophobic excipient): − | solubility of paclitaxel (crystal formation in the dried sample) (125.00 mg hydrophobic excipient): − | solubility of paclitaxel (crystal formation in the dried sample) (250.00 mg hydrophobic excipient): − | solubility of paclitaxel in the excipient, comparison in words (compared with olive oil and castor oil, from Table 1): greater than that in olive oil and castor oil
